According to PMC9256669, “Monomethyl auristatin antibody and peptide drug conjugates for trimodal cancer chemo-radio-immunotherapy” (Nature Communications, 2022):
pIC50: −log10 of the molar value. “And” between values parts separate entries of the source, which are not always exact repeats. Equal entries are not always repeated. Non-standard residues stand in square brackets, D forms with d. Residues, ends and D or L forms follow the SMILES beside them. *: point of attachment. Dolaproine = CO[C@@H]([C@@H]1CCCN1)[C@@H](C)C(=O)O; Dil = CC[C@H](C)[C@H](NC)[C@@H](CC(=O)O)OC; X1 = C[C@@H](N*)[C@@H](O)c1ccccc1; NMeV = CN[C@H](C(=O)O)C(C)C

Tests used:
[1] = tested on: 4MOSC1; assay: Cytotoxicity, Alamar Blue assay; type: cell-based, murine; details: 4MOSC1, 72 h drug exposure, one value per biological replicate, read-out: IC50 values
Protocol: (§1) Murine colorectal (MC38 (ENH204-FP)) cancer cell lines were obtained from Kerafast. Murine head and neck MOC1 and MOC2 were generously provided by Dr. R. Uppaluri. CAL27 PIK3CA H1047R expressing cells and 4MOSC1 cells were generated in Dr. Gutkind’s laboratory and previously characterized[42],[55]. […] MC38 cells were cultured in DMEM supplemented with 10% FBS, 1 mM sodium pyruvate (Gibco), 1% non-essential amino acids (Gibco), and 10 mM HEPES (Gibco). MOC1 and MOC2 cells were cultured in IMDM (Lonza)/F-12K nutrient mixture at a 2:1 mixture with 5% FBS, 5 ng/ml EGF (EMD Millipore), 400 ng/ml hydrocortisone (Sigma), and […] insulin (Sigma). On receipt, each cell line was expanded, cryopreserved as low passage stocks, and routinely tested for mycoplasma. Cisplatin (Enzo Biosciences), paclitaxel (Sigma), and MMAE (Concortis) were reconstituted in DMSO. Clinical-grade CDX3379 was provided by Celldex. Clinical grade cetuximab (Erbitux, Lilly Medical) was obtained from UCSD Moores Cancer Center Pharmacy.
(§2) Cells were plated in 96-well plates and exposed to a drug concentration range for 72 h. Alamar Blue was added to the cells and allowed to incubate for 2–4 h at 37 °C. Plates were analyzed using a plate reader with fluorescence measured at 560 nm. Fractional survival was normalized to untreated control cell fluorescent values. Drug IC50 was calculated using Prism software (GraphPad, La Jolla, CA). Cell viability, cytotoxicity and apoptosis were also measured by ApoTox-Glo Triplex Assay (Promega).

[2] = tested on: B16; assay: Cytotoxicity, Alamar Blue assay; type: cell-based, murine; details: B16, 72 h drug exposure, one value per biological replicate, read-out: IC50 values
Protocol: as §1, §2

[3] = tested on: MC38; assay: Cytotoxicity, Alamar Blue assay; type: cell-based, murine; details: MC38, 72 h drug exposure, one value per biological replicate, read-out: IC50 values
Protocol: as §1, §2

[4] = tested on: MOC2; assay: Cytotoxicity, Alamar Blue assay; type: cell-based, murine; details: MOC2, 72 h drug exposure, one value per biological replicate, read-out: IC50 values
Protocol: as §1, with “Clinical-grade CDX3379 was provided by Celldex.” left out
as §2
measured by Alamar Blue assay. For Alamar Blue assay cytotoxicity, we measured cell viability at 72 hr of […]

[5] = tested on: CAL27 WT and CAL27 PIK3CA H1047R cells; assay: Cell culture MMAE sensitivity of isogenic cell lines; type: cell-based, human; details: CAL27 WT vs CAL27 PIK3CA H1047R
Text: Specific Comment 3: “Line 266: fig 3e: the **** significance; is this IR+MMAE vs IR, or vs MMAE? Please […]
Response: Reviewer #2 raised a similar comment, (Rev #2, Comment 5). As mentioned, the statistical analysis in our original submission compared all 4 experimental groups. Based on Reviewers #2 & #4 […]
Importantly for scientific rigor & reproducibility , we would highlight that MMAE ± IR tumor response studies in syngeneic mice were replicated […]
Specific Comment 4: “Experiments with RAG mice showing that CD8+ T-cells are involved in the response to MMAE+IR are intriguing. A mechanistic explanation is however lacking. If T-cells are crucial for tumor control under IR, why is there such good response in CAL27 xenografts in nude mice with monotherapy only?” […]
adaptive immunity on durable tumor control of syngeneic tumors treated with MMAE + IR. Using depleting […]
mediated durable tumor control of MMAE radiosensitization . […]
Response: In cell culture testing, MOC1 and MOC2 cells were sensitive to MMAE and CDX3379-MMAE as measured by Alamar Blue assay. For Alamar Blue assay cytotoxicity, we measured cell viability at 72 hr of […]

[6] = tested on: B16 cells; assay: Cell surface binding of Cy5-labeled ADCs by flow cytometry; type: cell-based, murine
Protocol: Murine cancer cells incubated on ice with Cy5 labeled ADC, bound Cy5 signal measured
by flow cytometry. Mean fluorescent intensity measured and subtracted from baseline fluorescence of saline incubated cells for each cell line. Data representative of 3

Compound: CC[C@H](C)[C@@H]([C@@H](CC(=O)N1CCC[C@H]1[C@H](OC)[C@@H](C)C(=O)N[C@H](C)[C@@H](O)c1ccccc1)OC)N(C)C(=O)[C@@H](NC(=O)[C@@H](NC)C(C)C)C(C)C [MMAE, monomethyl auristatin E] (H-[NMeV]V[Dil][Dolaproine]-X1)
- pIC50 [1]: 8.74 and 8.82
- pIC50 [2]: 8.75 and 8.63 and 8.71 and 8.51
- pIC50 [3]: 7.84 and 7.83 and 7.52
- pIC50 [4]: 8.03 and 7.96
- MMAE sensitivity of isogenic cell lines [5]: did not see an appreciable difference in MMAE sensitivity between the isogenic cell lines

Compound: CDX3379-MMAE: anti-HER3 antibody CDX3379 with 4 MMAE per antibody via MC-VC-PABC linker, labeled with Cy5
- cell surface binding to B16 cells [6]: dose response cell surface binding
